Measurements reported in ChEMBL document CHEMBL1134842, “Mononuclear platinum(II) complex with 2-phenylpyridine ligands showing high cytotoxicity against mouse sarcoma 180 cells acquiring high cisplatin resistance” (J Med Chem, 2001).

Tests used:
[1] = Cytotoxicity against S-180cisR cells by MTT assay.; format: functional, cell-based, Mus musculus
[2] = Cytotoxicity against S-180 cells by MTT assay.; format: functional, cell-based, Mus musculus

cis-[PtCl2(NH3)(3-CH3CH2C5H4N)]
IC50 [1]: 49 µM

cis-[PtCl2(NH3)(3-CH3C5H4N)]
IC50 [1]: 49 µM

cis-[PtCl2(NH3)(2-CH3C5H4N)]
IC50 [1]: 49 µM

cis-[PtCl2(NH3)(2-C6H5CH2C5H4N)]
IC50 [1]: 49 µM

cis-[PtCl(2-C6H4C5H4)(2-C6H5C5H4N)]
IC50 [1]: 8.6 µM | IC50 [2]: 3.1 µM

CISPLATIN
IC50 [1]: 59 µM | IC50 [2]: 2.4 µM
